Assay results as given in patent publication US20120329813A1 (Cardoz AB, priority 2009, published 2012).

How the values were obtained:
[1] = system: CRP; conditions: subjects with prediabetes and elevated serum TNF-alpha; cited from earlier work
[2] = system: plasma CRP; assay: Plasma CRP (high sensitivity CRP assay) in healthy volunteers treated perorally with pemirolast potassium for five days; format: in vivo, human
Experimental: (§1) Plasma CRP was determined with a high sensitivity CRP assay (based on Near Infrared Particle Immunoassay rate methodology) on a UniCel DxC 800 instrument from Beckman Coulter (analysis performed at the Department of Clinical Chemistry, Karolinska University Laboratory, Stockholm, Sweden). The degree of mast cell activity was determined by measuring plasma tryptase with the ImmunoCAP Tryptase Fluoro-Immuno-Enzymatic Assay on a ImmunoCAP 250 instrument from Phadia (analysis performed at Clinical Immunology and Transfusion Medicine, Karolinska University Laboratory, Stockholm, Sweden).

[3] = system: plasma C-reactive protein (CRP); assay: Plasma CRP (hsCRP assay) in a patient with coronary artery disease treated with pemirolast potassium for two weeks; format: in vivo, human; conditions: CAD patient, 30 mg b.i.d., 6.4 mg/L on Day 1 before the first dose
Experimental: The study was approved by the Swedish Medical Products Agency, and performed by Berzelius Clinical Research Centre AB in Linköping, Sweden (the clinic).
Plasma CRP was determined with the high sensitivity CRP (hsCRP) assay described in Example 1 above.
(§2) The first dose (3×10 mg) was administered in the morning of Day 1 at the clinic, the second dose in the evening of Day 1 at home, and then 3×10 mg b.i.d. at home during Days 2 to 14. The last dose was administered in the evening of Day 14 at home.
(§3) The CAD patient was a person with a body height of 188 cm and a body weight of 103 kg. They were on treatment with enalapril 20 mg QD (once daily) for hypertension since 2006. After a myocardial infarction in 2009, they were started on treatment with simvastatin 40 mg QD, acetylsalicylic acid 75 mg QD, and metoprolol 100 mg QD (all three drugs started in June 2009). Since January 2010, the patient was also treated with felodipin 5 mg QD. During the two week treatment with pemirolast, the patient continued to take these medications.

[4] = human, in vivo, po
Experimental: During days 2-4, each subject received one dose in the morning and one dose in the evening with a time interval of 12 hours between the daily doses. […] Other than the occasional use of nasal decongestants or paracetamol, the subjects were instructed not to use other drugs, alcohol or nicotine during the study.

[5] = Safety in the CAD patient during the two week pemirolast treatment; format: in vivo, human; conditions: 30 mg b.i.d. for two weeks
Experimental: as §2, §3

[6] = system: plasma tryptase; assay: Plasma tryptase (ImmunoCAP Tryptase Fluoro-Immuno-Enzymatic Assay) in healthy volunteers before and after pemirolast treatment; format: in vivo, human
Experimental: as §1

[7] = apparently healthy subjects with normal or low LDL cholesterol and elevated CRP; 1.9 years; cited from earlier work
[8] = system: hsCRP; conditions: patients with chronic obstructive pulmonary disease; cited from earlier work

CN1CCC(=C2c3ccccc3CC(=O)c3sccc32)CC1 [ketotifen]
effect on CRP [1]: not to reduce CRP

Cc1cccn2c(=O)c(-c3nnn[nH]3)cnc12 [pemirolast]
effect on CRP levels (FIG. 1) ([2]; four subjects with baseline CRP >0.9 mg/L, 10, 30 or 50 mg day 1-5): markedly reduced
mean CRP level at the end of the pemirolast treatment ([2]; four subjects with baseline plasma CRP >0.9 mg/L, 10, 30 or 50 mg per os b.i.d. day 1-5, 1.8 mg/L before treatment, p<0.05): 1.1 mg/L
mean CRP level at the end of the pemirolast treatment ([2]; remaining subjects with baseline CRP below 0.9 mg/L (n=13), 0.32 mg/L before treatment): 0.38 mg/L
CRP level ([3]; Day 8): 4.0 mg/L
CRP level ([3]; morning of Day 15): 1.8 mg/L
AUC and Cmax versus dose [4]: increased in a dose-proportional manner
adverse events [5]: did not report any adverse events
effect on tryptase levels ([6]; four subjects with SLGI, plasma CRP >0.9 mg/L): did not reduce
mean plasma tryptase level ([6]; four subjects with plasma CRP >0.9 mg/L, both before and after pemirolast treatment): 4.8 µg/L

CC(C)c1nc(N(C)S(C)(=O)=O)nc(-c2ccc(F)cc2)c1/C=C/[C@@H](O)C[C@@H](O)CC(=O)O [rosuvastatin]
effect on cardiovascular morbidity/mortality [7]: significantly reduces

Cn1c(=O)c2[nH]cnc2n(C)c1=O [theophylline]
effect on hsCRP [8]: not to reduce hsCRP
